Data taken from patent US5744298A, “DNA sequences which encode immunoreactive HCMV-specific peptides” (Behringwerke Aktiengesellschaft, priority 1991, dated 1998).
Where no end group is shown, it is not given here.

Legend:
[1] = system: CMV IgG-positive sera; assay: ELISA of peptide-coated microtiter plates with CMV IgG-positive human sera (localization of epitopes); type: binding; details: plate coated with 2.5 μg peptide per ml, serum dilution 1:2; for Reactivity (individual reactivities of particularly reactive peptides with the assayed group of CMV IgG-positive sera, in percent): Table 3
Experimental: A microtiter plate with 96 wells was coated with a synthesized peptide. To do this, a solution of 2.5 μg of peptide per ml of carbonate buffer was made up and introduced in 100 μl portions into the wells for the coating. The peptides were adsorbed onto the surfaces at 4° C. overnight and, after removal of the peptide solution, the wells were washed several times with washing buffer (50 mM Tris, pH 7.2, 10 mM EDTA, 0.2% Tween 20). Then individual human serum samples in a 1:2 dilution were introduced and incubated at 37° C. for 1 hour. After another washing step, the conjugate antibody specific for human IgG antibodies or human IgM antibodies and labeled with peroxidase was added and the mixture was incubated at room temperature for 0.5 hour. The reaction was subsequently stopped by adding 0.5M sulfuric acid and extinction of the individual samples was measured at a wavelength of 450/650 nm in a photometer.
To test the immunogenicity, peptides of various length from the complete amino-acid sequence region from 718 to 880 of the HCMV protein pp150 (Tab. 2 and 3) were synthesized as described in Example 1. Subsequently, as in Example 2, the microtiter plates were coated with the synthesized peptides, and the immunological reactivity was assayed. […] The three immunologically reactive peptides have the following sequences: […]

[2] = system: monoclonal antibody 87-55/02; assay: Reaction of the monoclonal antibody 87-55/02 with peptide epitopes (ELISA, immunoblot); type: binding; details: measured as immunoblot and ELISA reactivity
From the text: It was concluded from the method for selecting the monoclonal antibody that the identified epitope must have a very important structure which is not even destroyed by denaturation of the complete protein. This monoclonal antibody correspondingly reacts both with the synthesized peptide 2.7 (SEQ ID NO:26) and with the recombinant protein XP1 (SEQ ID NO:33) and the pp150 protein of HCMV.

## phe glu gln pro thr leu thr phe gly ala gly val asn val pro ala gly ala gly ala ala ile leu thr pro thr pro val asn pro ser thr ala pro ala pro ala (FEQPTTLTFGAGVNVPAGAGAAILTPTPVNPSTAPAPA) [Peptide 1.4]
[1]
  Reactivity (individual reactivities of particularly reactive peptides with the assayed group of CMV IgG-positive sera, in percent): 90%

## pro thr leu thr phe gly ala gly val asn val pro ala gly ala gly ala ala ile leu thr pro thr pro val asn pro ser thr ala pro ala pro ala pro NH2 (PTLTFGAGVNVPAGAGAAILTPTPVNPSTAPAPAP-NH2) [Peptide 1.6]
[1]; Table 2
  Reactivity (individual reactivities of the synthetic pXP1 segments with the assayed group of CMV IgG-positive sera, in percent): 90%
[1]
  Reactivity (individual reactivities of particularly reactive peptides with the assayed group of CMV IgG-positive sera, in percent): 90%

## ala tyr lys phe glu gln pro thr leu thr phe gly ala gly val asn val pro ala gly ala gly ala ala ile leu thr pro thr pro val asn pro ser thr ala pro ala pro ala pro (AYKFGQPTLTFGAGVNVPAGAGAAILTPTPVNPSTAPAPAP) [Peptide 1.13]
[1]
  Reactivity (individual reactivities of particularly reactive peptides with the assayed group of CMV IgG-positive sera, in percent): 90%

B1: recombinant protein XP1: recombinant protein section, amino acid 718-880 of HCMV protein pp150 (protein)
chain: DPRFTDTLVDITDTETSAKPPVTTAYKFEQPTLTFGAGVNVPAGAGAAILTPTPVNPSTAPAPAPTPTFAGTQTPVNGNSPWAPTAPLPGDMNPANWPRERAWALKNPHLAYNPFRMPTTSTASQNTVSTTPRRPSTPRAAVTQTASRDAADEVWALRDQTA
[2]
  immunological reaction of monoclonal antibody 87-55/02 with protein: reacts

B2: HCMV protein pp150: HCMV protein pp150 (protein, UniProt P08318 1-1048, looked up)
Large structural …: MSLQFIGLQRRDVVALVNFLRHLTQKPDVDLEAHPKILKKCGEKRLHRRTVLFNELMLWLGYYRELRFHNPDLSSVLEEFEVRCVAVARRGYTYPFGDRGKARDHLAVLDRTEFDTDVRHDAEIVERALVSAVILAKMSVRETLVTAIGQTEPIAFVHLKDTEVQRIEENLEGVRRNMFCVKPLDLNLDRHANTALVNAVNKLVYTGRLIMNVRRSWEELERKCLARIQERCKLLVKELRMCLSFDSNYCRNILKHAVENGDSADTLLELLIEDFDIYVDSFPQSAHTFLGARSPSLEFDDDANLLSLGGGSAFSSVPKKHVPTQPLDGWSWIASPWKGHKPFRFEAHGSLAPAAEAHAARSAAVGYYDEEEKRRERQKRVDDEVVQREKQQLKAWEERQQNLQQRQQQPPPPARKPSASRRLFGSSADEDDDDDDDEKNIFTPIKKPGTSGKGAASGGGVSSIFSGLLSSGSQKPTSGPLNIPQQQQRHAAFSLVSPQVTKASPGRVRRDSAWDVRPLTETRGDLFSGDEDSDSSDGYPPNRQDPRFTDTLVDITDTETSAKPPVTTAYKFEQPTLTFGAGVNVPAGAGAAILTPTPVNPSTAPAPAPTPTFAGTQTPVNGNSPWAPTAPLPGDMNPANWPRERAWALKNPHLAYNPFRMPTTSTASQNTVSTTPRRPSTPRAAVTQTASRDAADEVWALRDQTAESPVEDSEEEDDDSSDTGSVVSLGHTTPSSDYNNDVISPPSQTPEQSTPSRIRKAKLSSPMTTTSTSQKPVLGKRVATPHASARAQTVTSTPVQGRLEKQVSGTPSTVPATLLQPQPASSKTTSSRNVTSGAGTSSASSARQPSASASVLSPTEDDVVSPATSPLSMLSSASPSPAKSAPPSPVKGRGSRVGVPSLKPTLGGKAVVGRPPSVPVSGSAPGRLSGSSRAASTTPTYPAVTTVYPPSSTAKSSVSNAPPVASPSILKPGASAALQSRRSTGTAAVGSPVKSTTGMKTVAFDLSSPQKSGTGPQPGSAGMGGAKTPSDAVQNILQKIEKIKNTEE
[2]
  immunological reaction of monoclonal antibody 87-55/02 with protein: unambiguous immunological reaction
